According to ChEMBL document CHEMBL1152888, “Synthesis, pharmacological and in silico evaluation of 1-(4-di-hydroxy-3,5-dioxa-4-borabicyclo[4.4.0]deca-7,9,11-trien-9-yl)-2-(tert-butylamino)ethanol, a compound designed to act as a beta2 adrenoceptor agonist” (Eur J Med Chem, 2009):
Calls of active or inactive are those of the source. No cut-off for these calls is given here.

How the values were obtained:
[1] = molecular target: Beta-2 adrenergic receptor (Cavia porcellus) (UniProt Q8K4Z4); experiment: Agonist activity at adrenergic beta2 receptor in Hartley guinea pig tracheal ring assessed as bronchorelaxation activity against histamine-induced contraction in presence of propranolol; type: functional, tissue-based; details: Trachea
[2] = molecular target: Beta-2 adrenergic receptor (Cavia porcellus) (UniProt Q8K4Z4); experiment: Agonist activity at adrenergic beta2 receptor in Hartley guinea pig tracheal ring assessed as maximum bronchorelaxation activity against histamine-induced contraction at 1 uM; type: functional, tissue-based; details: Trachea
[3] = molecular target: Beta-2 adrenergic receptor (Cavia porcellus) (UniProt Q8K4Z4); experiment: (§1) Agonist activity at adrenergic beta2 receptor in Hartley guinea pig tracheal ring assessed as bronchorelaxation activity against carbachol-induced contraction; type: functional, tissue-based; details: Trachea
[4] = molecular target: T1, Beta-2 adrenergic receptor (Cavia porcellus, UniProt Q8K4Z4); experiment: as §1; type: functional, tissue-based, Trachea
[5] = molecular target: Beta-2 adrenergic receptor (Cavia porcellus) (UniProt Q8K4Z4); experiment: Agonist activity at adrenergic beta2 receptor in Hartley guinea pig tracheal ring assessed as maximum bronchorelaxation activity against carbachol-induced contraction at 1 uM; type: functional, tissue-based; details: Trachea
[6] = molecular target: Beta-2 adrenergic receptor (Cavia porcellus) (UniProt Q8K4Z4); experiment: Agonist activity at adrenergic beta2 receptor in Hartley guinea pig tracheal ring assessed as bronchorelaxation activity against histamine-induced contraction in presence of ICI-118551; type: functional, tissue-based; details: Trachea
[7] = molecular target: T1, Beta-2 adrenergic receptor; experiment: Binding affinity to adrenergic beta2 receptor in Hartley guinea pig tracheal ring
[8] = molecular target: Beta-2 adrenergic receptor (Cavia porcellus) (UniProt Q8K4Z4); experiment: (§2) Agonist activity at adrenergic beta2 receptor in Hartley guinea pig tracheal ring assessed as bronchorelaxation activity against histamine-induced contraction; type: functional, tissue-based; details: Trachea
[9] = molecular target: T1, Beta-2 adrenergic receptor; experiment: as §2; type: functional, tissue-based, Trachea
[10] = molecular target: Beta-2 adrenergic receptor (Homo sapiens, UniProt P07550)
Chain of Beta-2 adrenergic receptor (Homo sapiens, UniProt P07550) (P07550 whole entry): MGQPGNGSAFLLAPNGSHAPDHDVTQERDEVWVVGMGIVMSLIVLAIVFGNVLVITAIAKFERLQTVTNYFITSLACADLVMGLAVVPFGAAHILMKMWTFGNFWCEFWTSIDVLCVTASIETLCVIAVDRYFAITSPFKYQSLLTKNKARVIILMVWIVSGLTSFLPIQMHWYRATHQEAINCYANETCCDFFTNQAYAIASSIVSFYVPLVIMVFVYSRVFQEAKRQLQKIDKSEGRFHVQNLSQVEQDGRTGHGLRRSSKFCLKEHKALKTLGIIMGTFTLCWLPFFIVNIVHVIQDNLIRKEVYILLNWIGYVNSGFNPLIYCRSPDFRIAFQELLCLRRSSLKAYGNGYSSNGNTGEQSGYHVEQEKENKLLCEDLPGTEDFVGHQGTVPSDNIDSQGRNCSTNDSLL
Description: Binding affinity to human adrenergic beta2 receptor

Chain of Beta-2 adrenergic receptor (Cavia porcellus) (Q8K4Z4 whole entry, looked up): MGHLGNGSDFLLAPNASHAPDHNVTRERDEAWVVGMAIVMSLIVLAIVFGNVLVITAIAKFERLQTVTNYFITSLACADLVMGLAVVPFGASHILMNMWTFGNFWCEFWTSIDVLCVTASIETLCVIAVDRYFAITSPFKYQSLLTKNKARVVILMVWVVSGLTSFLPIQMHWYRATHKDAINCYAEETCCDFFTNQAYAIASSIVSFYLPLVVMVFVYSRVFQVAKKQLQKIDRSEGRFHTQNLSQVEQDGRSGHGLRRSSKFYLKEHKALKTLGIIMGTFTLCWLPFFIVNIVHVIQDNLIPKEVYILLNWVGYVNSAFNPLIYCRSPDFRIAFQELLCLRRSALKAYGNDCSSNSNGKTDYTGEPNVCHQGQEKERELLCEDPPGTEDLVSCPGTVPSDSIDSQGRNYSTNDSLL
T1 sequence (Q8K4Z4 whole entry): as the sequence (Q8K4Z4 whole entry, looked up) above

Structure (SMILES)	Activity [1]	Activity [2]	Activity [3]	EC50 [4] [nM]	Activity [5]	Activity [6]	Kd [7] [nM]	Activity [8]	EC50 [9] [nM]	Kd [10] [nM]
CC(C)(C)NC[C@@H](O)c1ccc(OB(O)O)c(CO)c1	inactive	Active	Dose-dependent effect	2.1	Active	inactive	110	Dose-dependent effect	0.072	–
CC(C)(C)NCC(O)c1ccc(O)c(CO)c1 (centres undefined)	inactive	–	Dose-dependent effect	–	–	inactive	–	Dose-dependent effect	–	–
CC(C)NCC(O)c1cc(O)cc(O)c1 (centres undefined) [METAPROTERENOL]	–	–	–	–	–	–	–	–	–	4810
